Entries after “also recorded” stand apart in the source; their conditions may differ.

In one data set the target is T1, wt TRPM8 (Homo sapiens, UniProt Q7Z2W7).
T1 construct: expressed in transfected cells; host or cells: HEK-293, transient (Lipofectamine 2000)
Briefly: Calcium mobilization on HEK-293 cells transiently transfected with wt myc-tagged TRPM8. The conditions noted are these: icilin at EC80, wt; read-out: pIC50, inhibition of icilin activation, wt TRPM8 (converted). The data set is classed as cell-based. From the text: (§1) Single point mutations were introduced in the hTRPM8-coding sequence, and the mutated TRPM8 was cloned as N-terminal c-myc tagged version into the pcDNA3 expression vector. This was done in that way that the single variations could be easily swapped from the myc-tagged expression construct into the non-tagged TRPM8 wild type expression construct.
(§2) The list of the variants is the following: variant 1, t2233g, a2234c (=Y745A); variant 2, a2236g, t2237c (=I746A); variant 3, a2395g, a2396c (=N799A) and variant 4, a2405c (D802A). The cloning project comprised three steps. First of all, a unique XhoI restriction site was inserted by site-directed mutagenesis (SDM) using DNA of the pcDNA3_TRPM8 construct as template. The 0.6 kb DNA fragment between the unique 5′ XhoI (introduced) and 3′ BamHI (already present) restriction sites comprised all positions of the four single point mutations and could be later used for their insertion as well as swapping between myc-tagged and non-tagged TRPM8 versions. […] The obtained data from at least four wells (as replicates) were analyzed with GraphPad PRISM® software (version 5, GraphPad Software Inc.) to calculate the mean and standard error of the mean[58], to create sigmoidal concentration-response curves and to calculate IC50 values.
For orientation: Calcium flux is commonly read through the fluorescence of an indicator in the cells.

For another data set, the target named is T2, TRPM8 D802A (Homo sapiens, UniProt Q7Z2W7, D802A).
T2 construct: expressed in transfected cells; host or cells: HEK-293, transient (Lipofectamine 2000)
T2 sequence (Q7Z2W7 whole entry D802A): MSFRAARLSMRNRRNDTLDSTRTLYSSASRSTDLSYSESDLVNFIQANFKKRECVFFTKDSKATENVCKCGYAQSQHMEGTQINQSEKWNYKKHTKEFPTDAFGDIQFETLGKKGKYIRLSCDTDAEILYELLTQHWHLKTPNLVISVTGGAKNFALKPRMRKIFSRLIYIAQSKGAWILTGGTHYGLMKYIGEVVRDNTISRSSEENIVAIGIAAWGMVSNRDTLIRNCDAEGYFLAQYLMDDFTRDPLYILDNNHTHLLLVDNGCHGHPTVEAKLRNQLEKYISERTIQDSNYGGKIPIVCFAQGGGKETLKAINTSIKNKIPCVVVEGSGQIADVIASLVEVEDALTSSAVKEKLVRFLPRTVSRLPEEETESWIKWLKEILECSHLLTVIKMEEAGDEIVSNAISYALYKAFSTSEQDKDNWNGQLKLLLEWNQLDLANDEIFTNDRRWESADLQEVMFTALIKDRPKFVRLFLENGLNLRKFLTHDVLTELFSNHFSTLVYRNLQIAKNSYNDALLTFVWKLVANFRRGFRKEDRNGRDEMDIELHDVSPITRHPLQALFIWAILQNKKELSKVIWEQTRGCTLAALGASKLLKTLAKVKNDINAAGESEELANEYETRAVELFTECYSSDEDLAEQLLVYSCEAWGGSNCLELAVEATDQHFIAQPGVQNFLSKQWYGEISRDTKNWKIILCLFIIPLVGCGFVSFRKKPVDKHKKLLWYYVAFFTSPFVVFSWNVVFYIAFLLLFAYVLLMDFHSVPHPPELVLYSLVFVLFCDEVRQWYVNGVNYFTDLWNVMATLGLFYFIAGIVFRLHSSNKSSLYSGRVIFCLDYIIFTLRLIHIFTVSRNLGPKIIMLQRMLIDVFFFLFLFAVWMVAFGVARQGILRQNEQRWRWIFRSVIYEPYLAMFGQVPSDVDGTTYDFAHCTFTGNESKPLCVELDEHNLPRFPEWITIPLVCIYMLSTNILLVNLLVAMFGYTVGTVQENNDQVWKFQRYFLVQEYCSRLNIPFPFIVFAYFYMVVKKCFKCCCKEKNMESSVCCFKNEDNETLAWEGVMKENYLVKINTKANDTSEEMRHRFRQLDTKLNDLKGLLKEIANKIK
Briefly: Calcium mobilization on transiently transfected TRPM8 D802A mutant. The class given is cell-based. The conditions noted are these: Cooling agent 10 at EC80, D802A; read-out: pIC50, inhibition of Cooling agent 10 activation, D802A (converted).
Text: as §1
as §2, with “versions. In a second step, the c-myc tag sequence was introduced embedded within the TRPM8 coding sequence by PCR primers in two partially overlapping PCRs that were then joined by bridge PCR with the external 5′KpnI and internal 3′EcoRI primers and in the last step the point mutations 1 to 4 were inserted into pcDNA3_c-myc-TRPM8 by exchanging the wild type 5′XhoI-3′BamHI fragment (0.6 kb) with each of the corresponding variation fragment derived from synthetic DNA (provided by GeneArt, ThermoFisher Scientific).The myc-tagged constructs were transiently transfected in HEK-293 cells with Lipofectamine 2000 (Invitrogen) according to the manufacturer’s protocol. The pcDNA vectors containing the wt myc-tagged TRPM8 gene and the empty pcDNA3 (mock) were separately transfected into HEK-293 cells as controls.” for “versions.”

Data set [1] concerns the target T3, TRPM8 (Homo sapiens, UniProt Q7Z2W7).
T3 construct: expressed in transfected cells
Briefly: Manual patch clamp (whole-cell voltage clamp). The following applies: Cooling agent 10 50 μM, +40 mV, compound 1 300 nM. The data set is classed as cell-based. As for the experimental part:
Sixteen hours before an experiment, cells were seeded onto poly-D-lysine-coated glass slides (150,000 cells each) and placed in 6-well plates in antibiotic-free medium. Immediately before experiments, the coated glass slides with seeded cells were washed five times with patch-clamp extracellular solution (145 mM NaCl, 10 mM EGTA, 10 mM HEPES, 10 mM Glucose, pH 7.4 with NaOH) and then placed into the recording chamber.
The electrophysiology study involved a whole-cell voltage clamp and intracellular solution consisting of 128 mM CsCl, 10 mM EGTA, 0.7 mM CaCl2, 3 mM MgCl2, 10 mM HEPES, and 5 mM Na2ATP at pH 7.2 with CsOH. For the pulse protocols, cells were held at +40 mV, and outward currents were acquired in uninterrupted recording mode. Data were recorded in standard whole-cell voltage experiments performed at room temperature. For data acquisition and further analysis, an EPC10 digitally controlled amplifier was utilized in combination with PATCHMASTER software (HEKA Electronics, Lambrect, Germany). The EPC10 provides automatic subtraction of capacitive currents by means of the prepulse. The data were filtered at 2.9 KHz (−3 dB, 4-pole Bessel lowpass) and digitized at 100 µs per point. […] Outward currents elicited by the addition of 50 μM cooling agent 10 or of cooling agent 10 (50 μM) plus compound 1 (300 nM) were recorded.

For another data set, the target named is TRPA1 (Homo sapiens, UniProt O75762). The data set is described as follows: Selectivity calcium mobilization assay, TRPA1. The data set is classed as cell-based. The following applies: agonist 10 μM AITC. On the procedure: (§3) For calcium mobilization assays, cells were seeded at 10,000 cells/well in 384-well plates coated with poly-D-lysine (MATRIX black/clear bottom #4332-CPL, Thermo Scientific, Waltham, MA, USA) in complete medium.Twenty-four hours after seeding, the plates were washed with Tyrode’s buffer with a Bio-Tek-ELx405 Microplate Washer (Merck Millipore; Billerica, MA, USA), and then 10 µl/well of a solution containing the fluorescent Ca^2+ indicator Fluo-4 NW dye was added. Cells were incubated for 1 h at room temperature before test compounds were added at 3X the concentration with respect to the final wanted concentration to be tested with a FLIPR TETRA system (Molecular Devices, Sunnyvale, CA, USA). Calcium mobilization was monitored over a period of 5 min. A second injection of 10 µl/well of a reference agonist (icilin or Cooling agent 10) at 4X concentration in assay buffer was performed using the FLIPR TETRA system. Of note, for selectivity assays, the following agonists were used: 10 μM AITC (allyl isothiocyanate) for TRPA1; 100 nM Capsaicin for TRPV1; and 20 nM GSK1016790A for TRPV4.
TRPA1, sequence (O75762 whole entry, species assumed): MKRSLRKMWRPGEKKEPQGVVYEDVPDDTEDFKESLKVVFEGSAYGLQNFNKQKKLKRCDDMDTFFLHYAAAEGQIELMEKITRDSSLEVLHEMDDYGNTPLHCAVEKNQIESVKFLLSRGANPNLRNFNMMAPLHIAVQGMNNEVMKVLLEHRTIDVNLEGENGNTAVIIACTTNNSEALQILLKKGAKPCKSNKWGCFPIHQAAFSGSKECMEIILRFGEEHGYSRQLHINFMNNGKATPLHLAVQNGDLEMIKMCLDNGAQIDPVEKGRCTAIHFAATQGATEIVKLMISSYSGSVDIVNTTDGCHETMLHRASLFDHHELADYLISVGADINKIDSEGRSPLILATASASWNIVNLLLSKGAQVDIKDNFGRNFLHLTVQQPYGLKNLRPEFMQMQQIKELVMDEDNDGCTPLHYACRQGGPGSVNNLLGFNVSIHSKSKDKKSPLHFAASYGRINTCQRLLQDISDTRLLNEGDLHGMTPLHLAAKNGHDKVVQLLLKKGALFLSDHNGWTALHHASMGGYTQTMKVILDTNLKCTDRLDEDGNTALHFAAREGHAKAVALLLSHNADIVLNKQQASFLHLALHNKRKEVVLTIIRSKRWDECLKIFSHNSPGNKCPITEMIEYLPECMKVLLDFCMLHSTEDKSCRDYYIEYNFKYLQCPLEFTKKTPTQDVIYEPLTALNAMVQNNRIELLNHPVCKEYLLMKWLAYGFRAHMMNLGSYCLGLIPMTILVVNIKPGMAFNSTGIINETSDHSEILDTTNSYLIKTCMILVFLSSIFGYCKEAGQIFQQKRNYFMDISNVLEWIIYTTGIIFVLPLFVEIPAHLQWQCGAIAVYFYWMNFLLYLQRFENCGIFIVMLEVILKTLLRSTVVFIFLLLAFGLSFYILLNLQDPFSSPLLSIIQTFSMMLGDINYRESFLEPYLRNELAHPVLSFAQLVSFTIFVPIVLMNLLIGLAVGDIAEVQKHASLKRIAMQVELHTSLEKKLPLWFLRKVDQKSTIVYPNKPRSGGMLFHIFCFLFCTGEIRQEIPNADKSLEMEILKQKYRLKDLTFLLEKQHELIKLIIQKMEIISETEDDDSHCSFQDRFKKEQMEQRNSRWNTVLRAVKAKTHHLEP

The next data set addresses TRPV1 (Homo sapiens, UniProt Q8NER1). The data set is described as follows: Selectivity calcium mobilization assay, TRPV1. The data set is classed as cell-based. The conditions noted are these: agonist 100 nM Capsaicin. As for the experimental part:
as §3

The target in another data set is TRPV4 (Homo sapiens, UniProt Q9HBA0). Briefly: Selectivity calcium mobilization assay, TRPV4. The data set is classed as cell-based. The conditions noted are these: agonist 20 nM GSK1016790A. As for the experimental part: as §3
TRPV4, sequence (Q9HBA0 whole entry, species assumed): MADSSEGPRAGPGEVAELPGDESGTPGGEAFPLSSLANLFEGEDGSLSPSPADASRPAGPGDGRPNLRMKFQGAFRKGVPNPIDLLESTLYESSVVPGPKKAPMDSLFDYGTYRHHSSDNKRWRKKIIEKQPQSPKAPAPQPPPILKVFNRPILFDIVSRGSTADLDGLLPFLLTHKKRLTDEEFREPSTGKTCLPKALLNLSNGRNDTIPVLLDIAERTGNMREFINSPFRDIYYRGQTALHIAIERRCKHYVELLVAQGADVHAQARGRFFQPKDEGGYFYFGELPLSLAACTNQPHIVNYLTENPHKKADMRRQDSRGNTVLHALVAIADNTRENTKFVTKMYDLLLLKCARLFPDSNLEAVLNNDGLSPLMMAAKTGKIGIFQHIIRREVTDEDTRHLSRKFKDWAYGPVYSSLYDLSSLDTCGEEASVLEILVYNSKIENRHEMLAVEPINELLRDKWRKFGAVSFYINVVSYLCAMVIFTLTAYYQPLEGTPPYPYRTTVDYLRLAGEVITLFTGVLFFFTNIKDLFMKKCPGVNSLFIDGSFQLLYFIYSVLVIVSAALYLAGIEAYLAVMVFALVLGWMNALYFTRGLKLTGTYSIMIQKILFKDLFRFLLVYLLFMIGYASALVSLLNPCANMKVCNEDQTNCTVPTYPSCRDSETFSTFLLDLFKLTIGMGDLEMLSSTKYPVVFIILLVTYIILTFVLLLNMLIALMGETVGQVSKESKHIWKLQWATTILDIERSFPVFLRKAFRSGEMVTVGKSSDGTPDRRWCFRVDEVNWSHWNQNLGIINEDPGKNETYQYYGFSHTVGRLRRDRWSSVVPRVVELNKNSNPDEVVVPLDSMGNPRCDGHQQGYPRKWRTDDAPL
Data set [2] has as its target T3, TRPM8. Briefly: Schild regression versus icilin. The class given is cell-based. The following applies: data not shown. As for the experimental part: Compound 1 was also tested in schild regression experiments[65] and compared with icilin and cooling agent (data not shown) to better characterize its mechanism of action. In these experiments, seven points for dose-response curves with icilin at seven different concentrations were analyzed.

Data set [3] can be described thus: Preliminary PK/ADMET study. The conditions noted are these: in vivo proof of concept; Table S3 not available. On the procedure: To assess the activity of compound 1 in preclinical models of painful urologic syndromes as OBS we used an isovolumetric rat bladder animal model. A preliminary PK/ADMET study was conducted to assess the behaviour of compound 1 in vivo (Table S3).

T3 sequence (Q7Z2W7 whole entry): as the sequence (Q7Z2W7 whole entry D802A) above, with A802D counted along it
TRPV1, sequence (Q8NER1 whole entry, species assumed): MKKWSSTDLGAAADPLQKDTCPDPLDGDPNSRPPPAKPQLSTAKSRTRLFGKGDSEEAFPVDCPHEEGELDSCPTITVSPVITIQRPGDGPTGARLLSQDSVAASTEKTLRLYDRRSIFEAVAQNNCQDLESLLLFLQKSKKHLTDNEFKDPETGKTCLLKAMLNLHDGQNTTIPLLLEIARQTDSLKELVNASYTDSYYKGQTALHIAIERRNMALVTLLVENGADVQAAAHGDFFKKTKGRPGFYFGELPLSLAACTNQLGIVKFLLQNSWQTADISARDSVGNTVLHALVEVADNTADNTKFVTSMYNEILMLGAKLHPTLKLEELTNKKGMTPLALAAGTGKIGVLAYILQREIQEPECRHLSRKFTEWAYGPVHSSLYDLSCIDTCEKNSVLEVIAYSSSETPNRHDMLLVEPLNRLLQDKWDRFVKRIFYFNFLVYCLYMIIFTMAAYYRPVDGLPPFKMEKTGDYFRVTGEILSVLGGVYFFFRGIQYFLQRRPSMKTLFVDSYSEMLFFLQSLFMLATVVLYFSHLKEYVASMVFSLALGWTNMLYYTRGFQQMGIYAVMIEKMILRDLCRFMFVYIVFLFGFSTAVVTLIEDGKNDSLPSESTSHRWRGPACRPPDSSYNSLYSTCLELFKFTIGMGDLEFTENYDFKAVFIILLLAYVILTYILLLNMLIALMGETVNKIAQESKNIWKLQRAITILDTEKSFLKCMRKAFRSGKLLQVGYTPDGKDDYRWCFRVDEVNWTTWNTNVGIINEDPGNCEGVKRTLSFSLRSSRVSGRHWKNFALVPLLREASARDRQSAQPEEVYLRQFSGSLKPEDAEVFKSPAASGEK
T1 sequence (Q7Z2W7 whole entry): as the sequence (Q7Z2W7 whole entry D802A) above, with A802D counted along it

Regarding `Clc1c(OCCNCc2ccco2)ccc2ccccc12` [Compound 1], the IC50 was 0.0631 µM at wt TRPM8 and 3.16 µM at TRPM8 D802A. Also, the “Effect on outward current” value at TRPM8 [1] is recorded as “completely abrogated electrical impulse transmission; also recorded: almost completely blocked”. Besides, at TRPA1, the “Activity on TRPA1” value is “completely inactive; also recorded: didn’t have any effect”. In addition, the “Activity on TRPV1” value at TRPV1 was “completely inactive; also recorded: didn’t have any effect”. In addition, the “Activity on TRPV4” value at TRPV4 was “completely inactive”. Also, the “Binding mechanism by Schild regression” value at TRPM8 [2] is on record as “orthosteric binding mechanism”. The “PK/ADME properties” value in data set [3] was “adequate”.

The values are drawn from article PMC5591244, “Novel selective, potent naphthyl TRPM8 antagonists identified through a combined ligand- and structure-based virtual screening approach” (Scientific Reports, 2017).
